Assay results taken from US20130244879A1, “USE OF LIPO-CHITOOLIGOSACCHARIDES TO INITIATE EARLY FLOWERING AND FRUIT DEVELOPMENT IN PLANTS AND RELATED METHODS AND COMPOSITIONS” (NOVOZYMES BIOLOGICALS HOLDING A/S, priority 2003, published 2013).

Experiments:
[1] = tested on: Marigolds; assay: Experiment 12: LCO application on marigolds; assay type: in vivo, Marigold; details: best treatments
Protocol: Marigolds were planted in 32-cell flat and LCO was applied foliarly to plants 4 weeks after sowing (4 flats/treatment, 1 ml/plant applied containing various levels of LCO). Data collection started from the first flower appearing.

[2] = tested on: Marigold; assay: Experiment 5: foliar application of LCO to bedding plants (Marigold); assay type: in vivo
Excerpt: (§1) This is a growth room study. Seeds of garden plant species were selected on the basis of seed-purchase popularity (Norseco, Montreal), grown in trays of Pro-Mix (NB. trademarked name) Seeding Medium, and at some size were transplanted into trays of 36 and 32 wells containing the same medium. Growth proceeded under lights in the growth room. Some 2 weeks before expected flowering, 16 young plants were sprayed with each of various levels of LCO leaving control plants untreated. The results are presented in Table 5A on bud formation and where possible opened flowers.

[3] = tested on: Red tomato (cv. Mountain Spring); assay: Experiment 15: LCO application on early fruit number and yield, field tomato; assay type: in vivo
Protocol: Red tomato seedlings (cv. Mountain Spring) were transplanted at their 4-leaf stage. 7 plants in one row were transplanted in each plot of 3.5×2.5M2. The row was covered with 65 cm width black plastic mulch, one week before transplanting. Fertilizer (10-52-10) solution of 250 pprn was applied into the planting hole through the mulch when transplanting (approx. 250 ml/plant). the drip irrigation system was set to twice a week and 4 hours each time, depending on the soil moisture. Plants were sprayed with LCO 15 days after transplant (5 ml/plant) and 29 days after transplant (20 ml/plant). Fruits were first harvested 67 days after transplant.

[4] = tested on: Impatiens; assay: Experiment 5: foliar application of LCO to bedding plants (Impatiens); assay type: in vivo
Excerpt: as §1

[5] = tested on: Arabidopsis thaliana; assay: Experiments 3 and 4: effect of LCO on flowering in Arabidopsis thaliana; assay type: in vivo; details: vs surfactant treated plants
Protocol: Two experiments were performed to investigate effect of LCO on plant's flowering using experimental model plant Arabidopsis thaliana. Plants were treated with various a range of LCO concentrations. […] The LCO treated plants reached over 80% of plants with open flowers 4 days earlier than control, surfactant treated plants. LCO induced faster and more uniform flowering.

[6] = tested on: Cobra tomatoes; assay: Trial 1: LCO dose and delivery medium on greenhouse tomato (Cobra); assay type: in vivo; details: for more flowers than other treatments and control: 50 ng LCO
Protocol: Cobra (a hybrid cultivar) was used to examine optimum application dose between 10 and 100 ng/plant at one or two applications and the LCO delivery medium. The levels chosen were the extremes of beneficial doses determined previously in tomato field trials. The delivery media tested were LCO in water, Apex and centrifuged Apex. The first application of LCO was made 10 days after transplanting. When applied a second time it was 2 weeks after the first application. The following parameters were tested: leaf number, plant height, number of cluster, number of flower, number of fruit. Observations were made continuously for approximately a two-month period, at one-week intervals until plant growth was limited by pot bound roots. The cobra seedlings were transplanted 32 days after seeding, the first application was 10 days thereafter, the second application was 14 days after the first application. The fruits were harvested 6 weeks after the second application.

[7] = tested on: grain corn (cv. DK376); assay: Experiment 9: effect of LCO on grain corn yield; assay type: in vivo
Excerpt: Fertilizer (36-12-18) was applied to the corn field at a rate of 500 kg/ha before seeding. A machine planter was employed to plant the grain (cv. DK376, HU2650, Fludioxnil coated). To protect corn ears from bird damage, grain corn ears in the middle two rows were covered with plastic nets after silking. LCO was applied to corn plants at a rate of 200 L/ha for the first application 40 days after planting and at 400 L/ha for the second application 58 days after planting. The two protected middle rows of plants were harvested by a combine 152 days after planting. […] The total grain yield increased for all but the 10^−8M double application.

[8] = 50 ml/16 plants of 3 × 10^−8M LCO

Substance: Lipo-chitooligosaccharides [LCO]
- advanced flowering [1]: 2 days
- increase in number of flowers at 25 days [1]: 8%
- plants with 4 flower buds per plant ([2]; 50 ng treatment): 2
- Total Number of Marigold buds ([2]; 20 ml/16 plants of 10^−7M LCO): 26
- Total Number of Marigold flower ([2]; 20 ml/16 plants of 10^−7M LCO): 0
- Total Number of Marigold buds ([2]; 20 ml/16 plants of 10^−8M LCO): 25
- Total Number of Marigold flower ([2]; 20 ml/16 plants of 10^−8M LCO): 2
- Total Number of Marigold buds ([2]; 20 ml/16 plants of 10^−9M LCO): 24
- Total Number of Marigold flower ([2]; 20 ml/16 plants of 10^−9M LCO): 1
- Total Number of Marigold buds [2, 8]: 34
- Total Number of Marigold flower [2, 8]: 3
- optimal application ([3]; early fruit number and weight): 75 ng/plant
- early fruit number and weight ([3]; foliar spray 15 and 29 days after transplant): significantly increased
- Total Number of Impatiens buds ([4]; 20 ml/16 plants of 10^−7M LCO): 71
- Total Number of Impatiens buds ([4]; 20 ml/16 plants of 10^−8M LCO): 65
- Total Number of Impatiens buds ([4]; 20 ml/16 plants of 10^−9M LCO): 85
- Total Number of Impatiens buds [4, 8]: 66
- reached over 80% of plants with open flowers earlier than control [5]: 4 days
- Number of Flowers/Plant ([6]; 10 ng, Dec. 30): 1.2
- Number of Flowers/Plant ([6]; 10 ng, Jan. 07): 2.4
- Number of Fruit/Plant ([6]; 10 ng, Jan. 07): 0.3
- Number of Flowers/Plant ([6]; 10 ng, Jan. 15): 4.4
- Number of Fruit/Plant ([6]; 10 ng, Jan. 15): 1.8
- Number of Flowers/Plant ([6]; 10 ng, Jan. 22): 5.6
- Number of Fruit/Plant ([6]; 10 ng, Jan. 22): 2.1
- Number of Flowers/Plant ([6]; 10 ng, Jan. 31): 8.1
- Number of Fruit/Plant ([6]; 10 ng, Jan. 31): 2.5
- Fruit Weight ([6]; 10 ng, Mean of bases): 87.09 Gram/Plant
- Fruit Weight ([6]; 10 ng, base Bacterial Camer): 97.97 Gram/Plant
- Fruit Weight ([6]; 10 ng, base Bacterial Supernatent): 67.2 Gram/Plant
- Fruit Weight ([6]; 10 ng, base Water): 96.11 Gram/Plant
- early yield (fruit weight) vs untreated control ([6]; 50 ng LCO treatment): statistically significant effect
- more flowers than other treatments and control ([6]; January 15): 21%
- more flowers than other treatments and control ([6]; January 22): 14%
- Number of Flowers/Plant ([6]; 50 ng, Dec. 30): 0.97
- Number of Flowers/Plant ([6]; 50 ng, Jan. 07): 2.5
- Number of Fruit/Plant ([6]; 50 ng, Jan. 07): 0.33
- Number of Flowers/Plant ([6]; 50 ng, Jan. 15): 5.2
- Number of Fruit/Plant ([6]; 50 ng, Jan. 15): 2.2
- Number of Flowers/Plant ([6]; 50 ng, Jan. 22): 6.7
- Number of Fruit/Plant ([6]; 50 ng, Jan. 22): 2.5
- Number of Flowers/Plant ([6]; 50 ng, Jan. 31): 8.7
- Number of Fruit/Plant ([6]; 50 ng, Jan. 31): 2.9
- Fruit Weight ([6]; 50 ng, Mean of bases): 104.26 Gram/Plant
- Fruit Weight ([6]; 50 ng, base Bacterial Camer): 103.32 Gram/Plant
- Fruit Weight ([6]; 50 ng, base Bacterial Supernatent): 100.48 Gram/Plant
- Fruit Weight ([6]; 50 ng, base Water): 108.99 Gram/Plant
- Number of Flowers/Plant ([6]; 100 ng, Dec. 30): 0.9
- Number of Flowers/Plant ([6]; 100 ng, Jan. 07): 2.2
- Number of Fruit/Plant ([6]; 100 ng, Jan. 07): 0.37
- Number of Flowers/Plant ([6]; 100 ng, Jan. 15): 4.4
- Number of Fruit/Plant ([6]; 100 ng, Jan. 15): 1.7
- Number of Flowers/Plant ([6]; 100 ng, Jan. 22): 6.2
- Number of Fruit/Plant ([6]; 100 ng, Jan. 22): 2.1
- Number of Flowers/Plant ([6]; 100 ng, Jan. 31): 8.7
- Number of Fruit/Plant ([6]; 100 ng, Jan. 31): 2.6
- Fruit Weight ([6]; 100 ng, Mean of bases): 87.99 Gram/Plant
- Fruit Weight ([6]; 100 ng, base Bacterial Camer): 66.26 Gram/Plant
- Fruit Weight ([6]; 100 ng, base Bacterial Supernatent): 109.13 Gram/Plant
- Fruit Weight ([6]; 100 ng, base Water): 88.57 Gram/Plant
- advance of flowering over control ([6]; Trial 1, FIG. 5, Table 3): 4 to 5 days
- advance in early fruiting over control ([6]; Trial 1, second graph): 8 to 9 days
- optimal application (early fruit set) ([6]; three to four weeks after application): approximately 50 ng per plant
- Dry Yield (kg/2 rows) ([7]; 10^−7M once): 3.44 kg/2 rows
- Dry yield (kg/ha) ([7]; 10^−7M once): 5730.6 kg/ha
- Ears/2 rows ([7]; 10^−7M once): 37.25ab
- Fresh Yield (kg/2 rows) ([7]; 10^−7M once): 4.40 kg/2 rows
- Fresh Yield (kg/ha) ([7]; 10^−7M once): 7333.3 kg/ha
- Dry Yield (kg/2 rows) ([7]; 10^−7M twice): 3.96 kg/2 rows
- Dry yield (kg/ha) ([7]; 10^−7M twice): 6606.5 kg/ha
- Ears/2 rows ([7]; 10^−7M twice): 40.00a
- Fresh Yield (kg/2 rows) ([7]; 10^−7M twice): 5.03 kg/2 rows
- Fresh Yield (kg/ha) ([7]; 10^−7M twice): 8383.3 kg/ha
- Dry Yield (kg/2 rows) ([7]; 10^−8M once): 3.62 kg/2 rows
- Dry yield (kg/ha) ([7]; 10^−8M once): 6040.4 kg/ha
- Ears/2 rows ([7]; 10^−8M once): 37.00ab
- Fresh Yield (kg/2 rows) ([7]; 10^−8M once): 4.57 kg/2 rows
- Fresh Yield (kg/ha) ([7]; 10^−8M once): 7616.7 kg/ha
- Dry Yield (kg/2 rows) ([7]; 10^−8M twice): 3.23 kg/2 rows
- Dry yield (kg/ha) ([7]; 10^−8M twice): 5387.1 kg/ha
- Ears/2 rows ([7]; 10^−8M twice): 32.25bc
- Fresh Yield (kg/2 rows) ([7]; 10^−8M twice): 4.12 kg/2 rows
- Fresh Yield (kg/ha) ([7]; 10^−8M twice): 6866.7 kg/ha
- Dry Yield (kg/2 rows) ([7]; 10^−9M once): 3.77 kg/2 rows
- Dry yield (kg/ha) ([7]; 10^−9M once): 6275.6 kg/ha
- Ears/2 rows ([7]; 10^−9M once): 39.00ab
- Fresh Yield (kg/2 rows) ([7]; 10^−9M once): 4.75 kg/2 rows
- Fresh Yield (kg/ha) ([7]; 10^−9M once): 7916.7 kg/ha
- Dry Yield (kg/2 rows) ([7]; 10^−9M twice): 3.57 kg/2 rows
- Dry yield (kg/ha) ([7]; 10^−9M twice): 5953.5 kg/ha
- Ears/2 rows ([7]; 10^−9M twice): 37.25ab
- Fresh Yield (kg/2 rows) ([7]; 10^−9M twice): 4.55 kg/2 rows
- Fresh Yield (kg/ha) ([7]; 10^−9M twice): 7583.3 kg/ha
- Ear number over untreated control ([7]; all treatments except the 10^−8M double application): significantly increased
